Where a name gives a salt, the structure may show the parent alone. Read-outs that look alike come from different tables or passages of the source.
Tested on: NCIH929.1 cells
Test: Cell viability assay for Table 2 (CellTiter-Glo 2.0, ATP quantification, 96 hr)
Type: cell-based
Settings: 96 h
Excerpt: Cell Viability Assay for Table 2
CellTiter-Glo® 2.0 Assay was purchased from Promega (Madison, Wis., USA). NCIH929.1 cell line was purchased from ATCC (Manassas, Va., USA). Cell culture flasks and 384-well microplates were acquired from VWR (Radnor, Pa., USA).

[1] = NCIH929.1 cell viability, 96 hr, top concentration 1 μM, 14 points half log titration, read-out: IC50

Structure (SMILES)	IC50 [1]	IC50
CC(=O)N1CCN(Cc2ccc(Cc3ccc4c5c(cccc35)C(=O)N4C3CCC(=O)NC3=O)cc2)CC1 (stereo not drawn) [Compound 108, 3-(6-(4-((4-acetylpiperazin-1-yl)methyl)benzyl)-2-oxobenzo[cd]indol-1(2H)-yl)piperidine-2,6-dione]	< 1 nM	–
O=C1CCC(N2C(=O)c3cccc4c(Cc5ccc(CN6CCN(S(=O)(=O)CC(F)(F)F)CC6)cc5)ccc2c34)C(=O)N1 (stereo not drawn) [Compound 109, 3-(2-oxo-6-(4-((4-((2,2,2-trifIuoroethyl)sulfonyl)piperazin-1-yl)methyl)benzyl)benzo[cd]indol-1(2H)-yl)piperidine-2,6-dione]	< 1 nM	–
CC1(C(=O)N2CCN(Cc3ccc(Cc4ccc5c6c(cccc46)C(=O)N5C4CCC(=O)NC4=O)cc3)CC2)CCC1 (stereo not drawn) [Compound 110, 3-(6-(4-((4-(1-methylcyclobutane-1-carbonyl)piperazin-1-yl)methyl)benzyl)-2-oxobenzo[cd]indol-1(2H)-yl)piperidine-2,6-dione]	< 1 nM	–
O=C1CCC(N2C(=O)c3cccc4c(Cc5ccc(CN6CCN(C(=O)c7ccccc7)CC6)cc5)ccc2c34)C(=O)N1 (stereo not drawn) [Compound 111, 3-(6-(4-((4-benzoylpiperazin-1-yl)methyl)benzyl)-2-oxobenzo[cd]indol-1(2H)-yl)piperidine-2,6-dione]	< 1 nM	–
O=C1CCC(N2C(=O)c3cccc4c(Cc5ccc(CN6CCN(C(=O)C7CC7)CC6)cc5)ccc2c34)C(=O)N1 (stereo not drawn) [Compound 112, 3-(6-(4-((4-(cyclopropanecarbonyl)piperazin-1-yl)methyl)benzyl)-2-oxobenzo[cd]indol-1(2H)-yl)piperidine-2,6-dione]	< 1 nM	–
O=C1CCC(N2C(=O)c3cccc4c(Cc5ccc(CN6CCN(CC7CC7)CC6)cc5)ccc2c34)C(=O)N1 (stereo not drawn) [Compound 113, 3-(6-(4-((4-(cyclopropylmethyl)piperazin-1-yl)methyl)benzyl)-2-oxobenzo[cd]indol-1(2H)-yl)piperidine-2,6-dione]	< 1 nM	–
CN1CCN(Cc2ccc(Cc3ccc4c5c(cccc35)C(=O)N4C3CCC(=O)NC3=O)cc2)CC1 (stereo not drawn) [Compound 114, 3-(6-(4-((4-methylpiperazin-1-yl)methyl)benzyl)-2-oxobenzo[cd]indol-1(2H)-yl)piperidine-2,6-dione]	< 1 nM	–
O=C1CCC(N2C(=O)c3cccc4c(Cc5ccc(CN6CC7CCC(C6)O7)cc5)ccc2c34)C(=O)N1 (stereo not drawn) [Compound 115, 3-(6-(4-((8-oxa-3-azabicyclo[3.2.1]octan-3-yl)methyl)benzyl)-2-oxobenzo[cd]indol-1(2H)-yl)piperidine-2,6-dione]	< 1 nM	–
CN1CCN(Cc2ccc(Cc3ccc4c5c(cccc35)C(=O)N4C3CCC(=O)NC3=O)cc2)CC1=O (stereo not drawn) [Compound 116, 3-(6-(4-((4-mcthyl-3-oxopiperazin-1-yl)methyl)benzyl)-2-oxobenzo[cd]indol-1(2H)-yl)piperidme-2,6-dione]	< 1 nM	–
O=C1CCC(N2C(=O)c3cccc4c(Cc5ccc(CN6Cc7ccccc7C6)cc5)ccc2c34)C(=O)N1 (stereo not drawn) [Compound 117, 3-(6-(4-(isoindolin-2-ylmethyl)benzyl)-2-oxobenzo[cd]indol-1(2H)-yl)piperidine-2,6-dione]	< 1 nM	–
O=C1CCC(N2C(=O)c3cccc4c(Cc5ccc(CN6CCOc7ccccc7C6)cc5)ccc2c34)C(=O)N1 (stereo not drawn) [Compound 118, 3-(6-(4-((2,3-dihydrobenzo[f][1,4]oxazepin-4(5H)-yl)methyl)benzyl)-2-oxobenzo[cd]indol-1(2H)-yl)piperidine-2,6-dione]	< 1 nM	–
O=C1CCC(N2C(=O)c3cccc4c(Cc5ccc(CN6CCOC(c7ccc(F)cc7)C6)cc5)ccc2c34)C(=O)N1 (stereo not drawn) [Compound 119, 3-(6-(4-((2-(4-fluorophenyl)morpholino)methyl)benzyl)-2-oxobenzo[cd]indol-1(2H)-yl)piperidine-2,6-dione]	< 1 nM	–
O=C1CCC(N2C(=O)c3cccc4c(Cc5ccc(CN6CC(Oc7ccc(F)cc7)C6)cc5)ccc2c34)C(=O)N1 (stereo not drawn) [Compound 120, 3-(6-(4-((3-(4-fluorophenoxy)azetidin-1-yl)methyl)benzyl)-2-oxobenzo[cd]indol-1(2H)-yl)piperidine-2,6-dione]	< 1 nM	–
O=C1CCC(N2C(=O)c3cccc4c(Cc5ccc(CN6CCn7c(nnc7C(F)(F)F)C6)cc5)ccc2c34)C(=O)N1 (stereo not drawn) [Compound 121, 3-(2-oxo-6-(4-((3-(trifluoromethyl)-5,6-dihydro-[1,2,4]triazolo[4,3-a]pyrazin-7(8H)-yl)methyl)benzyl)benzo[cd]indol-1(2H)-yl)piperidine-2,6-dione]	< 1 nM	–
O=C1CCC(N2C(=O)c3cccc4c(Cc5ccc(CN6CCS(=O)(=O)CC6)cc5)ccc2c34)C(=O)N1 (stereo not drawn) [Compound 122, 3-(6-(4-((1,4-dioxidothiomorpholino)methyl)benzyl)-2-oxobenzo[cd]indol-1(2H)-yl)piperidine-2,6-dione]	< 1 nM	–
O=C1CCC(N2C(=O)c3cccc4c(Cc5ccc(CN6CCCOCC6)cc5)ccc2c34)C(=O)N1 (stereo not drawn) [Compound 123, 3-(6-(4-((1,4-oxazepan-4-yl)methyl)benzyl)-2-oxobenzo[cd]indol-1(2H)-yl)piperidine-2,6-dione]	< 1 nM	–
COC(=O)c1ccc2c3c(cccc13)C(=O)N2C1CCC(=O)NC1=O (stereo not drawn) [Compound 124, methyl 1-(2,6-dioxo-3-piperidyl)-2-oxo-benzo[cd]indole-6-carboxylate]	> 999 nM	–

Structure (SMILES)	IC50 [1]	IC50
CC1(C(=O)N2CCC(c3cn(Cc4ccc5c6c(cccc46)C(=O)N5C4CCC(=O)NC4=O)nn3)CC2)CCC1 (stereo not drawn) [Compound 125, 3-[6-[[4-[1-(1-methylcyclobutanecarbonyl)-4-piperidyl]triazol-1-yl]methyl]-2-oxo-benzo[cd]indol-1-yl]piperidine-2,6-dione]	< 1 nM	–
CC1(n2cc(Cc3ccc4c5c(cccc35)C(=O)N4C3CCC(=O)NC3=O)cn2)CCN(c2ncccc2F)CC1 (stereo not drawn) [Compound 126, 3-[6-[[1-[1-(3-fluoro-2-pyridyl)-4-methyl-4-piperidyl]pyrazol-4-yl]methyl]-2-oxo-benzo[cd]indol-1-yl]piperidine-2,6-dione]	< 1 nM	–
CC1(c2cn(Cc3ccc4c5c(cccc35)C(=O)N4C3CCC(=O)NC3=O)nn2)CCN(C(=O)C2(C(F)(F)F)CC2)CC1 (stereo not drawn) [Compound 127, 3-[6-[[4-[4-methyl-1-[1-(trifluoromethyl)cyclopropanecarbonyl]-4-piperidyl]triazol-1-yl]methyl]-2-oxo-benzo[cd]indol-1-yl]piperidine-2,6-dione]	< 1 nM	–
N#Cc1ccc(N2CCN(Cc3cnn(Cc4ccc5c6c(cccc46)C(=O)N5C4CCC(=O)NC4=O)c3)CC2)c(F)c1 (stereo not drawn) [Compound 128, 4-[4-[[1-[[1-(2,6-dioxo-3-piperidyl)-2-oxo-benzo[cd]indol-6-yl]methyl]pyrazol-4-yl]methyl]piperazin-1-yl]-3-fluoro-benzonitrile]	< 1 nM	–
N#Cc1ccc(N2CCN(Cc3ccc(Cc4ccc5c6c(cccc46)C(=O)N5C4CCC(=O)NC4=O)cc3)C3(CC3)C2)c(F)c1 (stereo not drawn) [Compound 131, 4-[4-[[4-[[1-(2,6-dioxo-3-piperidyl)-2-oxo-benzo[cd]indol-6-yl]methyl]phenyl]methyl]-4,7-diazaspiro[2.5]octan-7-yl]-3-fluoro-benzonitrile]	< 1 nM	–
CN(C(=O)N1CCC(n2cc(Cc3ccc4c5c(cccc35)C(=O)N4C3CCC(=O)NC3=O)cn2)CC1)C(C)(C)C (stereo not drawn) [Compound 132, N-tert-butyl-4-[4-[[1-(2,6-dioxo-3-piperidyl)-2-oxo-benzo[cd]indol-6-yl]methyl]pyrazol-1-yl]-N-methyl-piperidine-1-carboxamide]	< 1 nM	–
CC1(C(=O)N2CCC(C)(n3cc(Cc4ccc5c6c(cccc46)C(=O)N5C4CCC(=O)NC4=O)c(Cl)n3)CC2)CCC1 (stereo not drawn) [Compound 133]	< 1 nM	–
O=C1CCC(N2C(=O)c3cccc4c(Cc5ccc(C(=O)N6CCN(c7ccccc7F)CC6)cc5)ccc2c34)C(=O)N1 (stereo not drawn) [Compound 134, 3-[6-[[4-[4-(2-fluorophenyl)piperazine-1-carbonyl]phenyl]methyl]-2-oxo-benzo[cd]indol-1-yl]piperidine-2,6-dione]	< 1 nM	–
O=C1CCC(N2C(=O)c3cccc4c(Cc5ccc(CN6CCN(c7ccccc7F)CC67CC7)cc5)ccc2c34)C(=O)N1 (stereo not drawn) [Compound 135, 3-[6-[[4-[[7-(2-fluorophenyl)-4,7-diazaspiro[2.5]octan-4-yl]methyl]phenyl]methyl]-2-oxo-benzo[cd]indol-1-yl]piperidine-2,6-dione]	< 1 nM	–
C#CCNc1ccc2c3c(cccc13)C(=O)N2C1CCC(=O)NC1=O (stereo not drawn) [Compound 136, 3-[2-oxo-6-(prop-2-ynylamino)benzo[cd]indol-1-yl]piperidine-2,6-dione]	> 999 nM	–
C#CCOc1ccc2c3c(cccc13)C(=O)N2C1CCC(=O)NC1=O (stereo not drawn) [Compound 137, 3-(2-oxo-6-prop-2-ynoxy-benzo[cd]indol-1-yl)piperidine-2,6-dione]	< 100 nM	–
O=C1CCC(N2C(=O)c3cccc4cccc2c34)C(=O)N1 (stereo not drawn) [Compound 139, 3-(2-oxobenzo[cd]indol-1(2H)-yl)piperidine-2,6-dione]	–	< 100 nM
CC(C)(C)OC(=O)N1CCC(n2cc(C(=O)c3ccc4c5c(cccc35)C(=O)N4C3CCC(=O)NC3=O)cn2)CC1 (stereo not drawn) [Compound 143, tert-butyl 4-(4-(1-(2,6-dioxopiperidin-3-yl)-2-oxo-1,2-dihydrobenzo[cd]indole-6-carbonyl)-1H-pyrazol-1-yl)piperidine-1-carboxylate]	< 999 nM	–
Nc1ccc2c3c(cccc13)C(=O)N2C1CCC(=O)NC1=O (stereo not drawn) [Compound 144, 3-(6-Amino-2-oxo-2H-benzo[cd]indol-1-yl)-piperidine-2,6-dione hydrochloride]	< 999 nM	–
N#Cc1ccc2c3c(cccc13)C(=O)N2C1CCC(=O)NC1=O (stereo not drawn) [Compound 145, 1-(2,6-dioxopiperidin-3-yl)-2-oxo-1,2-dihydrobenzo[cd]indole-6-carbonitrile]	> 999 nM	–
O=C1CCC(N2C(=O)c3cccc4c(Cc5ccc(CN6C7COCC6C7)cc5)ccc2c34)C(=O)N1 (stereo not drawn) [Compound 146, 3-[6-[[4-(3-oxa-6-azabicyclo[3.1.1]heptan-6-ylmethyl)phenyl]methyl]-2-oxo-benzo[cd]indol-1-yl]piperidine-2,6-dione]	< 1 nM	–

Source: patent US20230082430A1 (C4 Therapeutics, Inc., priority 2019, published 2023)
